Data set [1] concerns naïve rats. Nature of the data set: Passive one-way inhibitory avoidance learning, naïve rats. Type of data set: in vivo, Sprague-Dawley rats. The following applies: 5 mg/kg/d i.p., 1 day and 7 days after footshock. The protocol: SAHA was supplied by NatureWise Biotech and Medicals Corporation (Taipei, Taiwan). […] (St. Louis, MO, USA). The BMX and SAHA stock (100 mg/mL) was dissolved in DMSO and diluted with saline to a final concentration of 0.5 mg/mL (in 0.5% DMSO/saline). […] SD rats were randomly divided into 3 groups. For the naïve animal experiments, the BMX-injected or SAHA-injected groups were injected with BMX (5 mg/kg/d) or SAHA (5 mg/kg/d) intraperitoneally 7 d prior to behavioral experiments and during the experimentation. The control group received the 0.5% DMSO/saline injection. The injection volume was 10 μL/g of body weight. The injections were performed once per day. For the amnesia experiment, the protocol was adopted from previous studies with modifications. […] The control group received the 0.5% DMSO/saline injection. The injection volume was 10 μL/g of body weight. […] The apparatus consisted of a trough-shaped alley divided by a sliding door that separates an illuminated safety compartment and a dark compartment. A shock generator that produced current was connected to the floor of the dark compartment (UGO Basile, Comerio (VA), Italy). The method used was adopted from that of previous studies with modifications. The behavioral task, including the training and testing procedures, was recorded between 8:00 AM and 6:00 PM. […]

Data set [2] concerns primary hippocampal neurons. Briefly: MTT cell survival assay. Type of data set: cell-based, Sprague-Dawley rats. To be noted: 1, 2.5, 5 and 10 μM, DIV 5, 24 h. As for the experimental part: The primary hippocampal culture was prepared as described previously. To culture embryonic hippocampal primary neurons, pregnant Sprague-Dawley rats were purchased from the National Laboratory Center in Taiwan. The hippocampal tissue from the embryos of the Sprague-Dawley rats (E19) was dissociated with 100 U/mL of papain (Sigma-Aldrich) and plated onto poly-L-lysine-coated coverslips at a density of 1 × 10^4 cells/cm^2 with a minimal essential medium containing 5% calf serum, 5% horse serum, and 50 ng/mL insulin-transferrin-selenite (Sigma-Aldrich). Three hours after plating, the medium was replaced with 2% of a B27-neurobasal medium (Invitrogen, Carlsbad, CA, USA) containing 0.5 mM glutamine and 12.5 μM glutamate.
Cell viability was evaluated by an MTT (3-(4,5-dimethylthiazol-2-yl)-2,5-diphenyl tetrazolium bromide, Sigma-Aldrich) assay 24 h after SAHA and BMX treatment at concentrations of 0, 1, 2.5, 5, and 10 μM. The protocol was performed as described previously. Cells were incubated with an MTT (0.5 mg/mL) reagent (Sigma-Aldrich) at 37°C for 1 h. The MTT solution was removed, and DMSO was added to the wells shaken at room temperature for 1 h. The amount of MTT formazan product was quantified by measuring its absorbance at 570 and 630 nm by using an ELISA plate reader (SpectraMax M2 Microplate Readers, Molecular Devices, Sunnyvale, CA, USA).
For orientation: Tetrazolium dyes change colour on reduction, which living cells bring about.

Data set [3] relates to Sco-induced amnesia rats. Briefly: Passive one-way avoidance, Sco-induced memory impairment. Type of data set: in vivo, Sprague-Dawley rats. The following applies: Sco 1.5 mg/kg/d; BMX or SAHA 5 mg/kg/d i.p.; 1 day and 7 days after footshock.
Procedure: The BMX and SAHA stock (100 mg/mL) was dissolved in DMSO and diluted with saline to a final concentration of 0.5 mg/mL (in 0.5% DMSO/saline). Sco was dissolved in saline to a final concentration of 0.15 mg/mL based on previous studies [35, 36]. SD rats were randomly divided into 3 groups. For the naïve animal experiments, the BMX-injected or SAHA-injected groups were injected with BMX (5 mg/kg/d) or SAHA (5 mg/kg/d) intraperitoneally 7 d prior to behavioral experiments and during the experimentation. The control group received the 0.5% DMSO/saline injection. The injection volume was 10 μL/g of body weight. The injections were performed once per day. For the amnesia experiment, the protocol was adopted from previous studies [35, 36] with modifications. The Sco-injected (SAHA + Sco) or (BMX + Sco)-injected groups were injected with Sco (1.5 mg/kg/d), SAHA (5 mg/kg/d) or BMX (5 mg/kg/d), intraperitoneally 7 d prior to behavioral experiments and during the experimentation. The control group received the 0.5% DMSO/saline injection. The injection volume was 10 μL/g of body weight. […]
The apparatus consisted of a trough-shaped alley divided by a sliding door that separates an illuminated safety compartment and a dark compartment. […] The behavioral task, including the training and testing procedures, was recorded between 8:00 AM and 6:00 PM. […]
Data set [4] relates to Sco-induced amnesia rats. Nature of the data set: Water-maze learning, Sco-induced memory impairment. It counts as in vivo, Sprague-Dawley rats. The following applies: Sco 1.5 mg/kg/d; BMX or SAHA 5 mg/kg/d i.p. The protocol:
(§1) SAHA was supplied by NatureWise Biotech and Medicals Corporation (Taipei, Taiwan). […] (St. Louis, MO, USA). The BMX and SAHA stock (100 mg/mL) was dissolved in DMSO and diluted with saline to a final concentration of 0.5 mg/mL (in 0.5% DMSO/saline). […] SD rats were randomly divided into 3 groups. For the naïve animal experiments, the BMX-injected or SAHA-injected groups were injected with BMX (5 mg/kg/d) or SAHA (5 mg/kg/d) intraperitoneally 7 d prior to behavioral experiments and during the experimentation. The control group received the 0.5% DMSO/saline injection. The injection volume was 10 μL/g of body weight. The injections were performed once per day. For the amnesia experiment, the protocol was adopted from previous studies with modifications. […] The control group received the 0.5% DMSO/saline injection. The injection volume was 10 μL/g of body weight. […] The method was adopted from that of a previous study with modifications. A plastic circular pool 2.0 m in diameter and 0.6 m in height was filled with water (25 ± 2°C) to a depth of 20 cm. A circular platform (8 cm in diameter) was placed at a specific location from the edge of the pool and submerged 2-3 cm below the water surface. Water was made cloudy by adding toxic-free dye. Distinctive visual cues were set on the wall. For spatial learning, animals were subjected to 3 trials per day, with one trial early in the morning, one trial at noon, and another in the late afternoon. The training procedure lasted 4 days, and a total of 12 trials were given. This procedure was adopted because spaced training is a better paradigm to facilitate memory consolidation. For these trials, the rats were positioned at different starting points spaced equally around the perimeter of the pool in random order. They had 120 s to find the hidden platform. If a rat could not find the platform, it was guided to the platform and was allowed to remain there for 20 s. The time each animal took to reach the platform was recorded as the escape latency. A probe trial of 120 s was given on day 5 to test their memory retention. The rats were placed in the pool with the platform removed, and the time they spent in each quadrant (Quadrants 1, 2, 3, and 4) was recorded. Quadrant 4 is the target quadrant. For the trained and swimming control experiments, rats in the trained group were subjected to the regular water maze learning procedure. At the end of the experiment, the rats were subjected to visible platform learning. For visible platform learning, a flag was mounted on the platform, and the platform was raised 2.5 cm above the surface of the water. In addition, the dye had not been added, so that the animals could see the location of the platform from the water. […]

For data set [5], the system named is naïve rats. Nature of the data set: Water-maze learning, naïve rats. Type of data set: in vivo, Sprague-Dawley rats. To be noted: 5 mg/kg/d i.p. As for the experimental part:
as §1, with “If a rat could not find the platform, it was guided to the platform and was allowed to remain there for 20 s.” left out, “A probe trial of 120 s was given on day 5 to test their memory retention.” left out, “recorded.” for “recorded. Quadrant 4 is the target quadrant. For the trained and swimming control experiments, rats in the trained group were subjected to the regular water maze learning procedure. At the end of the experiment, the rats were subjected to visible platform learning. For visible platform learning, a flag was mounted on the platform, and the platform was raised 2.5 cm above the surface of the water. In addition, the dye had not been added, so that the animals could see the location of the platform from the water.”

From paper PMC3625590, “NBM-T-L-BMX-OS01, Semisynthesized from Osthole, Is a Novel Inhibitor of Histone Deacetylase and Enhances Learning and Memory in Rats” (Evidence-based Complementary and Alternative Medicine : eCAM, 2013) come the findings set out here.

`O=C(CCCCCCC(=O)Nc1ccccc1)NO` [SAHA, suberoylanilide hydroxamic acid, reference compound]: the “retention time in the illuminated chamber” value is recorded as “No difference in retention performance” in the data set with naïve rats [1] and “showed less retention time in the illuminated chamber” with Sco-induced amnesia rats [3]. The “survival rate of primary hippocampal neurons (MTT)” value in data set [2] is “reduced the survival rate of the hippocampal neurons at concentrations of 2.5, 5, and 10 μM”. Moreover, the “escape latency in finding the hidden platform” value with Sco-induced amnesia rats [4] was “attenuates Sco-induced longer escape latency”; in the data set on naïve rats [5], “shortened escape latency”. Also, the entries for the “probe trial, time spent in target quadrant” value in the data set with Sco-induced amnesia rats [4] and in the data set on naïve rats [5] (day 5) were “spent more time in the target quadrant” and “showed no difference compared with the control group”, respectively. Also, the “visual discrimination ability, motor coordination, and motivational state (swimming speed, visible platform learning)” value in the data set with naïve rats [5] is listed as “Neither BMX nor SAHA affects”.
